Measurements taken from paper PMC11992225, “Antibacterial compounds against non-growing and intracellular bacteria” (npj Antimicrobials and Resistance, 2025).
pEC50: −log10 of the molar value. Several values for one entry are separate records, joined by “and”; a condition that tells them apart may be missing. Equal values may be shown once.

How the values were obtained:
[1] = test system: non-growing S. aureus DSM2569; experiment: Dose-dependent killing analysis (CFU spot-plating) of stationary-phase S. aureus; type: cell-based, Staphylococcus aureus; conditions: for Δlog10(CFU/ml): S. aureus, average killing vs before treatment (9,097)
How it was run: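 Survival was scored as CFU after overnight growth at 37 °C on LB agar, using spots from 10-fold PBS dilutions of treated cultures. Non-growing S. aureus DSM2569 had been exposed to compound for 24 h in 1:4 CA-MHB, pH 7.4. Three biological replicates were run.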

[2] = test system: non-growing UPEC CFT073; experiment: Dose-dependent killing analysis (CFU spot-plating) of stationary-phase UPEC; type: cell-based, Escherichia coli
How it was run: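 Killing assessed by CFU counts: overnight 37 °C LB agar spot plates (10 μl drops of 10-fold PBS dilutions) scored at the lowest dilution with distinct colonies. Samples were compound-treated non-growing UPEC CFT073, 200 μl per well. Performed as three biological replicates.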

[3] = test system: non-growing S. aureus DSM2569; experiment: Dilution-regrowth assay (OD600, start-growth-time) on stationary-phase S. aureus; type: cell-based, Staphylococcus aureus; conditions: S. aureus; for OD600 at 8hr, Mean: after dilution into drug-free medium
How it was run: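 Non-growing S. aureus was tested in a dilution-regrowth format. Cells were cultured and treated for 24 h in 1:4 diluted CA-MHB, pH 7.4, then diluted into drug-free medium, and OD600 was measured every 20 min. Start-growth-time was the time OD600 passed 0.12. Dose-response curves were fitted with a five-parameter logistic equation to derive EC50.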

## Bleomycin
[1]
  Log10(CFU/ml), Replicate #1: 6.114 Log10(CFU/ml) and 7.898 Log10(CFU/ml) and 8.934 Log10(CFU/ml) and 8.881 Log10(CFU/ml)
  Log10(CFU/ml), Replicate #2: 6.845 Log10(CFU/ml) and 8.447 Log10(CFU/ml) and 8.959 Log10(CFU/ml) and 9.255 Log10(CFU/ml)
  Log10(CFU/ml), Replicate #3: 6.863 Log10(CFU/ml) and 8.431 Log10(CFU/ml) and 8.778 Log10(CFU/ml) and 8.944 Log10(CFU/ml)
[1]; 0.1 μM
  Δlog10(CFU/ml): 0.070 log10(CFU/ml)
[1]; 0.5 μM
  Δlog10(CFU/ml): 0.206 log10(CFU/ml)
[1]; 2.5 μM
  Δlog10(CFU/ml): 0.838 log10(CFU/ml)
[1]; 10 μM
  Δlog10(CFU/ml): 2.490 log10(CFU/ml)
[2]; E. coli in 1:4 CA-MHB (pH 7.4), 0.25 μM, average killing vs before treatment (8.977)
  Δlog10(CFU/ml): 0.270 log10(CFU/ml)
[2]; E. coli in 1:4 CA-MHB (pH 7.4), 0.5 μM, average killing vs before treatment (8.977)
  Δlog10(CFU/ml): 0.232 log10(CFU/ml)
[2]; E. coli in 1:4 CA-MHB (pH 7.4), 1 μM, average killing vs before treatment (8.977)
  Δlog10(CFU/ml): 0.145 log10(CFU/ml)
[2]; E. coli in 1:4 CA-MHB (pH 7.4), 2.5 μM, average killing vs before treatment (8.977)
  Δlog10(CFU/ml): 0.654 log10(CFU/ml)
[2]; E. coli in 1:4 CA-MHB (pH 7.4), 5 μM, average killing vs before treatment (8.977)
  Δlog10(CFU/ml): 1.149 log10(CFU/ml)
[2]; E. coli in 1:4 CA-MHB (pH 7.4), 10 μM, average killing vs before treatment (8.977)
  Δlog10(CFU/ml): 1.686 log10(CFU/ml)
[2]; E. coli in LPM (pH 5.5), 0.25 μM, average killing vs before treatment (7.350)
  Δlog10(CFU/ml): 0.339 log10(CFU/ml)
[2]; E. coli in LPM (pH 5.5), 0.5 μM, average killing vs before treatment (7.350)
  Δlog10(CFU/ml): 0.181 log10(CFU/ml)
[2]; E. coli in LPM (pH 5.5), 1 μM, average killing vs before treatment (7.350)
  Δlog10(CFU/ml): 0.347 log10(CFU/ml)
[2]; E. coli in LPM (pH 5.5), 2.5 μM, average killing vs before treatment (7.350)
  Δlog10(CFU/ml): 0.457 log10(CFU/ml)
[2]; E. coli in LPM (pH 5.5), 5 μM, average killing vs before treatment (7.350)
  Δlog10(CFU/ml): 1.004 log10(CFU/ml)
[2]; E. coli in LPM (pH 5.5), 10 μM, average killing vs before treatment (7.350)
  Δlog10(CFU/ml): 1.335 log10(CFU/ml)
[2]; pH 5.5
  Log10(CFU/ml), Replicate #1: 5.301 Log10(CFU/ml) and 5.477 Log10(CFU/ml) and 6.204 Log10(CFU/ml) and 6.279 Log10(CFU/ml) and 6.491 Log10(CFU/ml) and 6.477 Log10(CFU/ml)
  Log10(CFU/ml), Replicate #2: 5.568 Log10(CFU/ml) and 6.114 Log10(CFU/ml) and 6.778 Log10(CFU/ml) (2×) and 6.903 Log10(CFU/ml) and 6.477 Log10(CFU/ml)
  Log10(CFU/ml), Replicate #3: 7.176 Log10(CFU/ml) and 7.447 Log10(CFU/ml) and 7.699 Log10(CFU/ml) and 7.954 Log10(CFU/ml) and 8.114 Log10(CFU/ml) and 8.079 Log10(CFU/ml)
[2]; pH 7.4
  Log10(CFU/ml), Replicate #1: 7.903 Log10(CFU/ml) and 8.362 Log10(CFU/ml) and 8.903 Log10(CFU/ml) and 9.462 Log10(CFU/ml) and 9.362 Log10(CFU/ml) and 9.114 Log10(CFU/ml)
  Log10(CFU/ml), Replicate #2: 6.556 Log10(CFU/ml) and 7.279 Log10(CFU/ml) and 7.954 Log10(CFU/ml) and 8.778 Log10(CFU/ml) and 8.699 Log10(CFU/ml) and 8.301 Log10(CFU/ml)
  Log10(CFU/ml), Replicate #3: 7.415 Log10(CFU/ml) and 7.845 Log10(CFU/ml) and 8.114 Log10(CFU/ml) and 8.255 Log10(CFU/ml) and 8.176 Log10(CFU/ml)
[3]; 0.1 μM
  OD600 at 8hr, Mean: 0.622
[3]; 0.5 μM
  OD600 at 8hr, Mean: 0.595
[3]; 2.5 μM
  OD600 at 8hr, Mean: 0.351
[3]; 10 μM
  OD600 at 8hr, Mean: 0.129
[3]; regrowth delay of non-growing bacteria, 1:4 CA-MHB pH 7.4, 24 h treatment, OD600 8 h after dilution, read-out: EC50
  pEC50: 5.59
